Test results published in paper PMC7589200, “Identification of Putative Non-Substrate-Based XT-I Inhibitors by Natural Product Library Screening” (Biomolecules, 2020).
“And” between values parts separate entries of the source, which are not always exact repeats. Equal entries are not always repeated.

Tests used:
XT-I = target: T1, XT-I (Homo sapiens, UniProt Q86Y38); test: Cellular (extra- and intracellular) XT-I activity of NHDFs by UPLC-ESI-MS/MS XT-I assay; assay type: cell-based; conditions: for extracellular XT-I activity relative to DMSO control / intracellular XT activity compared to DMSO control: then inhibitor-free media 48 h (96 h)
T1 sequence (Q86Y38 260-959 limits assumed): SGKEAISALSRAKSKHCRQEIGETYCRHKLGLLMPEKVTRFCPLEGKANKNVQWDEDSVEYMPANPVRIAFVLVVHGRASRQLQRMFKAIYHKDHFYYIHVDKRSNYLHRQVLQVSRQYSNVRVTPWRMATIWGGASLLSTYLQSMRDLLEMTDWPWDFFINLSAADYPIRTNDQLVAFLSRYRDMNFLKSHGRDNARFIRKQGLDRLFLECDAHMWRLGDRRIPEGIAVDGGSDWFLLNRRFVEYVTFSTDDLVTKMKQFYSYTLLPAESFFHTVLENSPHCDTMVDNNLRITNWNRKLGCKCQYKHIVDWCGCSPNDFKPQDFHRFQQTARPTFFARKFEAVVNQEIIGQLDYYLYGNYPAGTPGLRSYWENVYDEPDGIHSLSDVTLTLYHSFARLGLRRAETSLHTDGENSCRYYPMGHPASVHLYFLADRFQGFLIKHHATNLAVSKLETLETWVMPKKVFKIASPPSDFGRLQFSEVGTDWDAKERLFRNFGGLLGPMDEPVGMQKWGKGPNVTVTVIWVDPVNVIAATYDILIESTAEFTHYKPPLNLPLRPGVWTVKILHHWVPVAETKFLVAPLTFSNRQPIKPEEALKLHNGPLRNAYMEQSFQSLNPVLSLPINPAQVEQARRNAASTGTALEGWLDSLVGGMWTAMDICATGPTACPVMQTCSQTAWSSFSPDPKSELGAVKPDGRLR
Source text: The measurement of relative XT-I activity among different samples is based on the XT-catalyzed incorporation of xylose from UDP-D-xylose on a modified bikunin-derived peptide after a fixed reaction time. The assay was originally developed for the determination of XT activity in human- or cell-culture-derived samples [13] by ultra-performance liquid chromatography/electrospray ionization tandem mass spectrometry (UPLC/ESI-MS/MS). The UPLC/ESI-MS/MS XT assay was recently modified toward a XT-I selective activity determination in human serum and cell culture samples (unpublished data). The relative intensities of the xylosylated peptide species abundance obtained with the respective m/z ratio were directly proportional to the relative XT-I activity of the sample. The XT-I activity determined is expressed in arbitrary units and normalized to the total protein content per 1 mL sample volume in cell culture approaches. A calibrator probe with a fixed amount of recombinant XT-I enzyme was included in every UPLC-MS/MS XT-I assay for assay comparability across multiple runs. The assay reaction mixture (50 μL) contained 50% (v/v) of the respective XT-I enzyme solution and 50% (v/v) reaction buffer. The final XT-I assay contained 25 mM MES buffer (pH 6.5), 25 mM KF buffer, 5 mM MnCl2, 5 mM MgCl2, 7.0 μM modified acceptor peptide and 30 μM UDP-D-xylose. The sample preparation for UPLC/ESI-MS/MS was performed according to [13]. In brief, after sample incubation at 37 °C for 24 h, the reaction was stopped by heating at 99 °C for 10 min. After centrifugation (10,000× g, 10 min) the supernatant was diluted fivefold with UPLC water for analysis. All cell-based XT-I assays were carried out in three biological and three technical replicates per donor-derived primary cell culture, while the XT-I activity determination for screening or kinetic purposes was carried out at least in technical duplicates.
A former established cell culture model was utilized to investigate the effect of putative XT-I inhibitors on NHDFs. The inhibition studies were carried out with final inhibitor concentrations of 0.5, 1.0, 2.0 or 4.0 μM diluted in fully supplemented DMEM. In brief, unless otherwise stated, NHDFs were cultivated with a low density of 50 cells per mm^2 on a hard tissue culture substrate (100 × 20 mm dish) in fully supplemented DMEM with or without additional TGF-β1 (5 μg/L) for 24 h, promoting their transdifferentiation into proto-myofibroblasts. Thereafter, cells were treated with celastrol or amphotericin B in the presence or absence of TGF-β1 (5 μg/L) for an additional 48 h. Negative controls treated with solvent only were included for every sampling time. The final DMSO content of 0.04% (v/v) was kept constant in all inhibition experiments.
The cell culture supernatant was collected to analyze the extracellular XT-I activity, whereas the same cell culture monolayer was lysed using a fixed amount of 0.75 mL Nonidet P-40 (NP-40)-buffer (50 mM TRIS, 150 mM NaCl, 1% NP-40, pH 7.8) for the analysis of intracellular XT-I activities. After sample centrifugation (10,000× g, 10 min, 4 °C), the supernatant contained the intracellular XT-I protein. The lysates were also used for the BCA assay. The cellular XT-I activities were measured 48 h after inhibitor treatment (48 h) or an additional 48 h after inhibitor removal (96 h).

[1] = system: normal human dermal fibroblasts (NHDFs); test: WST-1 cell proliferation assay; assay type: cell-based; conditions: 48 h
Method: Normal human dermal fibroblasts (NHDFs) from a 37- and […] were obtained commercially from Cambrex (Walkerville, United States) and Coriell (New Jersey, United States). The NHDFs were cultured in phenol red-free Dulbecco’s modified Eagle’s medium (DMEM; Thermo Fisher Scientific, Waltham, Massachusetts, United States) supplemented with 10% (v/v) FCS, 4 mM L-glutamine and 100,000 U/L penicillin, 100 mg/L Streptomycin, 0.25 mg/L amphotericin B (PAN Biotech, Aidenbach, Germany) at 37 °C, 5% CO2. The medium was changed twice a week until the cells reached 80% confluency. The NHDFs were subcultured with an expansion ratio of 1:3 using 0.05% trypsin (PAN Biotech, Aidenbach, Germany) and used until the ninth passage.
The tetrazolium salt WST-1 (Roche, Basel, Swiss) was used for the spectrophotometric quantification of cell proliferation in response to various inhibitor concentrations. The cell proliferation assay was carried out according to the manufacturer’s instructions in a 96-well tissue culture plate with 1700 cells per cavity. Based on the inhibition studies, the cells were cultured in fully supplemented DMEM for 24 h then treated with celastrol or amphotericin B for an additional 48 h. The WST-1 reagent was added to the cell culture supernatant 4 h before the end of the treatment. The absorptions at 440 and 590 nm were measured at timepoints 0, 1, 2, 3 and 4 h after the addition of WST-1.

fibroblasts = conditions: in vitro, osteoblasts and fibroblasts; cited from earlier work
[2] = 2.0 μM with TGF-β1 (5 μg/L) 48 h
[3] = 1.0 μM with TGF-β1 (5 μg/L) 48 h

| SMILES | extracellular XT-I activity relative to DMSO control (XT-I; [2]) | intracellular XT activity compared to DMSO control (XT-I; [2]) | cell proliferation (WST-1) compared to control ([1]; 4.0 μM) | cell proliferation (WST-1) compared to control ([1]; 0.5 to 2.0 μM) | concentration causing sublethal cytotoxicity (fibroblasts) | concentration lethal to fibroblasts (fibroblasts) | extracellular XT-I activity relative to untreated cells (XT-I; 0.5 μM, 48 h, inhibitor still present in supernatant (Figure S3)) | extracellular XT-I activity relative to DMSO control (XT-I; [3]) | intracellular XT activity compared to DMSO control (XT-I; [3]) | intracellular XT activity (XT-I; inhibitor present 48 h (Figure S3 setup, 0.5 μM)) | cell proliferation (WST-1) compared to control ([1]; 2.0 μM) | cell proliferation (WST-1) compared to control ([1]; 0.5 and 1.0 μM) |
| --- | --- | --- | --- | --- | --- | --- | --- | --- | --- | --- | --- | --- |
| C[C@@H]1[C@H](O)[C@@H](C)/C=C/C=C/C=C/C=C/C=C/C=C/C=C/[C@H](O[C@@H]2O[C@H](C)[C@@H](O)[C@H](N)[C@@H]2O)C[C@@H]2O[C@](O)(C[C@@H](O)C[C@@H](O)[C@H](O)CC[C@@H](O)C[C@@H](O)CC(=O)O[C@H]1C)C[C@H](O)[C@H]2C(=O)O [Compound 17, Amphotericin B] | 0.6 ± 0.03 fold | did not result in any detectable changes | reduced the proliferation of NHDFs significantly | did not influence cellular proliferation | 5000 ng/mL and 10000 ng/mL | 100000 ng/mL | – | – | – | – | – | – |
| CC1=C(O)C(=O)C=C2C1=CC=C1[C@@]2(C)CC[C@@]2(C)[C@@H]3C[C@](C)(C(=O)O)CC[C@]3(C)CC[C@]12C [Compound 68, Celastrol] | – | – | significantly decreased cell proliferation | – | – | – | 0.8 ± 0.07 fold | 0.9 ± 0.06 fold | did not result in any detectable changes | No intracellular XT activity changes were observed | significantly decreased cell proliferation | did not influence cellular proliferation |
